According to patent publication US20250163104A1, “MACROCYCLIC IMMUNOMODULATORS” (priority 2021, published 2025):
Where a SMILES comes first, the peptide text is derived from it. Bridges are numbered along the chain shown (N, C = ends). [ ]: non-standard residue; d: D form. The star is where a group is joined. Phe(3-CF3) = N[C@@H](Cc1cccc(C(F)(F)F)c1)C(=O)O; Ala(morpholin-4-yl) = N[C@@H](CN1CCOCC1)C(=O)O; Phe(4-COOH) = N[C@@H](Cc1ccc(C(=O)O)cc1)C(=O)O; Bip = N[C@@H](Cc1ccc(-c2ccccc2)cc1)C(=O)O; Abu(3R-NH2) = C[C@@H](N)[C@H](N)C(=O)O; Phe(3-Me) = Cc1cccc(C[C@H](N)C(=O)O)c1; Val(3-OH) = CC(C)(O)[C@H](N)C(=O)O; Cha = N[C@@H](CC1CCCCC1)C(=O)O; Carboxymethyl = O=C(O)C*; Nle = CCCC[C@H](N)C(=O)O; Orn = NCCC[C@H](N)C(=O)O; Dab = NCC[C@H](N)C(=O)O

Molecular target: T1, human PD-1 / PD-L1-Ig binding on Jurkat cell line over-expressing human PD-1 (Jurkat-PD-1) (Homo sapiens, UniProt Q15116)
T1 construct: expressed in transfected cells; host or cells: Jurkat
Assay: Jurkat-PD-1 Cell Binding High-Content Screening Assay (CBA)
Assay type: cell-based
Details: Jurkat-PD-1 cells, PE-labeled PD-L1-Ig 20 nM final; read-out: Jurkat HPD1_PDL1 IC50
Method in brief: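 Cell-bound PE-labeled PD-L1-Ig (20 nM final, 1 h) measured by high-content imaging after fixation and Hoechst 33342 counterstain. Compound was applied first for 2 h at 37° C. to Jurkat cells over-expressing human PD-1 in DMEM with 10% FCS.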

T1 sequence (Q15116 25-288): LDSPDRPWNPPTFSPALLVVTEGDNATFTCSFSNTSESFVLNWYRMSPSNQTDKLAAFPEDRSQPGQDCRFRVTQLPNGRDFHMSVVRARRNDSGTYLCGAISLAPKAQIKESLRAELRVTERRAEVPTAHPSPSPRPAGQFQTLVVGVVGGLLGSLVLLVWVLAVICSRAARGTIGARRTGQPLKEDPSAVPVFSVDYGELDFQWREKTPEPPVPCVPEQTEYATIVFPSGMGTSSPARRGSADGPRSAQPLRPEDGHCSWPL

SMILES | IC50 [nM]
CC(C)C[C@H]1NC(=O)[C@H](CCCN)NC(=O)[C@H](Cc2ccc(C(=O)O)cc2)NC(=O)[C@H](Cc2ccc(-c3ccccc3)cc2)NC(=O)[C@H](Cc2ccc(C(=O)O)cc2)NC(=O)[C@H](Cc2cccc(C(F)(F)F)c2)NC(=O)[C@H](CC(=O)O)NC(=O)[C@H](Cc2ccc(C(=O)O)cc2)NC(=O)[C@H](CN2CCOCC2)NC(=O)CSC[C@@H](C(=O)N[C@@H](CCN)C(N)=O)NC(=O)[C@H](CO)NC(=O)[C@H](C(C)(C)O)NC(=O)[C@H](CC2CCCCC2)NC(=O)[C@H](CCN)NC1=O [Example 2710] ({CH2CO}-[Ala(morpholin-4-yl)][Phe(4-COOH)]D[Phe(3-CF3)][Phe(4-COOH)][Bip][Phe(4-COOH)][Orn][dL][Dab][Cha][Val(3-OH)]SC[Dab]-NH2; thioether N-14) | 1.2
CC(C)C[C@H]1NC(=O)[C@H](CCCN)NC(=O)[C@H](Cc2ccc(C(=O)O)cc2)NC(=O)[C@H](Cc2ccc(-c3ccccc3)cc2)NC(=O)[C@H](Cc2ccc(C(=O)O)cc2)NC(=O)[C@H](Cc2cccc(C(F)(F)F)c2)NC(=O)[C@H](CC(=O)O)NC(=O)[C@H](Cc2ccc(C(=O)O)cc2)NC(=O)[C@H](CN2CCOCC2)NC(=O)CSC[C@@H](C(=O)N[C@@H](CCN)C(N)=O)NC(=O)[C@H](CCC(=O)O)NC(=O)[C@H](C(C)C)NC(=O)[C@H](CC2CCCCC2)NC(=O)[C@H](CCN)NC1=O [Example 2712] ({CH2CO}-[Ala(morpholin-4-yl)][Phe(4-COOH)]D[Phe(3-CF3)][Phe(4-COOH)][Bip][Phe(4-COOH)][Orn][dL][Dab][Cha]VEC[Dab]-NH2; thioether N-14) | 2.8
CCCC[C@@H]1NC(=O)CSC[C@@H](C(=O)N[C@@H](CCN)C(N)=O)NC(=O)[C@H](CO)NC(=O)[C@H](C(C)(C)O)NC(=O)[C@H](CC2CCCCC2)NC(=O)[C@H](CCN)NC(=O)[C@@H](CC(C)C)NC(=O)[C@H](CCCN)NC(=O)[C@H](Cc2ccc(C(=O)O)cc2)NC(=O)[C@H](Cc2ccc(-c3ccccc3)cc2)NC(=O)[C@H](Cc2ccc(C(=O)O)cc2)NC(=O)[C@H](Cc2cccc(C(F)(F)F)c2)NC(=O)[C@H](CC(=O)O)NC(=O)[C@H](Cc2ccc(OCC(=O)O)cc2)NC1=O [Example 2713] ({CH2CO}-[Nle]Y(Carboxymethyl)D[Phe(3-CF3)][Phe(4-COOH)][Bip][Phe(4-COOH)][Orn][dL][Dab][Cha][Val(3-OH)]SC[Dab]-NH2; thioether N-14) | 0.7
CCCC[C@@H]1NC(=O)CSC[C@@H](C(=O)N[C@@H](CCN)C(N)=O)NC(=O)[C@H](CCC(=O)O)NC(=O)[C@H](C(C)(C)O)NC(=O)[C@H](CC2CCCCC2)NC(=O)[C@H](CCN)NC(=O)[C@@H](CC(C)C)NC(=O)[C@H](CCCN)NC(=O)[C@H](Cc2ccc(C(=O)O)cc2)NC(=O)[C@H](Cc2ccc(-c3ccccc3)cc2)NC(=O)[C@H](Cc2ccc(C(=O)O)cc2)NC(=O)[C@H](Cc2cccc(C)c2)NC(=O)[C@H](CC(=O)O)NC(=O)[C@H](Cc2ccc(OCC(=O)O)cc2)NC1=O [Example 2714] ({CH2CO}-[Nle]Y(Carboxymethyl)D[Phe(3-Me)][Phe(4-COOH)][Bip][Phe(4-COOH)][Orn][dL][Dab][Cha][Val(3-OH)]EC[Dab]-NH2; thioether N-14) | 0.3
CC(C)C[C@H]1NC(=O)[C@H](CCCN)NC(=O)[C@H](Cc2ccc(C(=O)O)cc2)NC(=O)[C@H](Cc2ccc(-c3ccccc3)cc2)NC(=O)[C@H](Cc2ccc(C(=O)O)cc2)NC(=O)[C@H](Cc2cccc(C(F)(F)F)c2)NC(=O)[C@H](CC(N)=O)NC(=O)[C@H](Cc2ccc(C(=O)O)cc2)NC(=O)[C@H]([C@@H](C)N)NC(=O)CSC[C@@H](C(=O)N[C@@H](CCN)C(N)=O)NC(=O)[C@H](CO)NC(=O)[C@H](C(C)(C)O)NC(=O)[C@H](CC2CCCCC2)NC(=O)[C@H](CCN)NC1=O [Example 2717] ({CH2CO}-[Abu(3R-NH2)][Phe(4-COOH)]N[Phe(3-CF3)][Phe(4-COOH)][Bip][Phe(4-COOH)][Orn][dL][Dab][Cha][Val(3-OH)]SC[Dab]-NH2; thioether N-14) | 35.6
CCCC[C@@H]1NC(=O)CSC[C@@H](C(=O)N[C@@H](CCN)C(N)=O)NC(=O)[C@H](CO)NC(=O)[C@H](C(C)(C)O)NC(=O)[C@H](CC2CCCCC2)NC(=O)[C@H](CCN)NC(=O)[C@@H](CC(C)C)NC(=O)[C@H](CCCN)NC(=O)[C@H](Cc2ccc(C(=O)O)cc2)NC(=O)[C@H](Cc2ccc(-c3ccccc3)cc2)NC(=O)[C@H](Cc2ccc(C(=O)O)cc2)NC(=O)[C@H](Cc2cccc(C(F)(F)F)c2)NC(=O)[C@H](CC(N)=O)NC(=O)[C@H](Cc2ccc(C(=O)O)cc2)NC1=O [Example 2718] ({CH2CO}-[Nle][Phe(4-COOH)]N[Phe(3-CF3)][Phe(4-COOH)][Bip][Phe(4-COOH)][Orn][dL][Dab][Cha][Val(3-OH)]SC[Dab]-NH2; thioether N-14) | 330
CC(C)C[C@H]1NC(=O)[C@H](CCCN)NC(=O)[C@H](Cc2ccc(C(=O)O)cc2)NC(=O)[C@H](Cc2ccc(-c3ccccc3)cc2)NC(=O)[C@H](Cc2ccc(C(=O)O)cc2)NC(=O)[C@H](Cc2cccc(C(F)(F)F)c2)NC(=O)[C@H](CC(N)=O)NC(=O)[C@H](Cc2ccc(C(=O)O)cc2)NC(=O)[C@H](CN2CCOCC2)NC(=O)CSC[C@@H](C(=O)N[C@@H](CCN)C(N)=O)NC(=O)[C@H](CO)NC(=O)[C@H](C(C)(C)O)NC(=O)[C@H](CC2CCCCC2)NC(=O)[C@H](CCN)NC1=O [Example 2719] ({CH2CO}-[Ala(morpholin-4-yl)][Phe(4-COOH)]N[Phe(3-CF3)][Phe(4-COOH)][Bip][Phe(4-COOH)][Orn][dL][Dab][Cha][Val(3-OH)]SC[Dab]-NH2; thioether N-14) | 43.9
Cc1cccc(C[C@@H]2NC(=O)[C@H](CC(N)=O)NC(=O)[C@H](Cc3ccc(C(=O)O)cc3)NC(=O)[C@H](CCN)NC(=O)CSC[C@@H](C(=O)N[C@@H](CCN)C(N)=O)NC(=O)[C@H](CO)NC(=O)[C@H](C(C)(C)O)NC(=O)[C@H](CC3CCCCC3)NC(=O)[C@H](CCN)NC(=O)[C@@H](CC(C)C)NC(=O)[C@H](CCCN)NC(=O)[C@H](Cc3ccc(C(=O)O)cc3)NC(=O)[C@H](Cc3ccc(-c4ccccc4)cc3)NC(=O)[C@H](Cc3ccc(C(=O)O)cc3)NC2=O)c1 [Example 2720] ({CH2CO}-[Dab][Phe(4-COOH)]N[Phe(3-Me)][Phe(4-COOH)][Bip][Phe(4-COOH)][Orn][dL][Dab][Cha][Val(3-OH)]SC[Dab]-NH2; thioether N-14) | 101
Cc1cccc(C[C@@H]2NC(=O)[C@H](CC(N)=O)NC(=O)[C@H](Cc3ccc(C(=O)O)cc3)NC(=O)[C@H](CC(C)C)NC(=O)CSC[C@@H](C(=O)N[C@@H](CCN)C(N)=O)NC(=O)[C@H](CCC(=O)O)NC(=O)[C@H](C(C)C)NC(=O)[C@H](CC3CCCCC3)NC(=O)[C@H](CCN)NC(=O)[C@@H](CC(C)C)NC(=O)[C@H](CCCN)NC(=O)[C@H](Cc3ccc(C(=O)O)cc3)NC(=O)[C@H](Cc3ccc(-c4ccccc4)cc3)NC(=O)[C@H](Cc3ccc(C(=O)O)cc3)NC2=O)c1 [Example 2721] ({CH2CO}-L[Phe(4-COOH)]N[Phe(3-Me)][Phe(4-COOH)][Bip][Phe(4-COOH)][Orn][dL][Dab][Cha]VEC[Dab]-NH2; thioether N-14) | 190
